Drawing on US20070021434A1, “NON-NUCLEOSIDE ANTI-HEPACIVIRUS AGENTS AND USES THEREOF” (Migenix Inc., priority 2005, published 2007), this text covers IC50 for 37 compounds.

One may read the IC50 as the concentration needed to halve the response being measured. Higher therefore signals a need for much substance.

Sequence of HCV RdRp (NS5B) (P26663 whole entry, looked up): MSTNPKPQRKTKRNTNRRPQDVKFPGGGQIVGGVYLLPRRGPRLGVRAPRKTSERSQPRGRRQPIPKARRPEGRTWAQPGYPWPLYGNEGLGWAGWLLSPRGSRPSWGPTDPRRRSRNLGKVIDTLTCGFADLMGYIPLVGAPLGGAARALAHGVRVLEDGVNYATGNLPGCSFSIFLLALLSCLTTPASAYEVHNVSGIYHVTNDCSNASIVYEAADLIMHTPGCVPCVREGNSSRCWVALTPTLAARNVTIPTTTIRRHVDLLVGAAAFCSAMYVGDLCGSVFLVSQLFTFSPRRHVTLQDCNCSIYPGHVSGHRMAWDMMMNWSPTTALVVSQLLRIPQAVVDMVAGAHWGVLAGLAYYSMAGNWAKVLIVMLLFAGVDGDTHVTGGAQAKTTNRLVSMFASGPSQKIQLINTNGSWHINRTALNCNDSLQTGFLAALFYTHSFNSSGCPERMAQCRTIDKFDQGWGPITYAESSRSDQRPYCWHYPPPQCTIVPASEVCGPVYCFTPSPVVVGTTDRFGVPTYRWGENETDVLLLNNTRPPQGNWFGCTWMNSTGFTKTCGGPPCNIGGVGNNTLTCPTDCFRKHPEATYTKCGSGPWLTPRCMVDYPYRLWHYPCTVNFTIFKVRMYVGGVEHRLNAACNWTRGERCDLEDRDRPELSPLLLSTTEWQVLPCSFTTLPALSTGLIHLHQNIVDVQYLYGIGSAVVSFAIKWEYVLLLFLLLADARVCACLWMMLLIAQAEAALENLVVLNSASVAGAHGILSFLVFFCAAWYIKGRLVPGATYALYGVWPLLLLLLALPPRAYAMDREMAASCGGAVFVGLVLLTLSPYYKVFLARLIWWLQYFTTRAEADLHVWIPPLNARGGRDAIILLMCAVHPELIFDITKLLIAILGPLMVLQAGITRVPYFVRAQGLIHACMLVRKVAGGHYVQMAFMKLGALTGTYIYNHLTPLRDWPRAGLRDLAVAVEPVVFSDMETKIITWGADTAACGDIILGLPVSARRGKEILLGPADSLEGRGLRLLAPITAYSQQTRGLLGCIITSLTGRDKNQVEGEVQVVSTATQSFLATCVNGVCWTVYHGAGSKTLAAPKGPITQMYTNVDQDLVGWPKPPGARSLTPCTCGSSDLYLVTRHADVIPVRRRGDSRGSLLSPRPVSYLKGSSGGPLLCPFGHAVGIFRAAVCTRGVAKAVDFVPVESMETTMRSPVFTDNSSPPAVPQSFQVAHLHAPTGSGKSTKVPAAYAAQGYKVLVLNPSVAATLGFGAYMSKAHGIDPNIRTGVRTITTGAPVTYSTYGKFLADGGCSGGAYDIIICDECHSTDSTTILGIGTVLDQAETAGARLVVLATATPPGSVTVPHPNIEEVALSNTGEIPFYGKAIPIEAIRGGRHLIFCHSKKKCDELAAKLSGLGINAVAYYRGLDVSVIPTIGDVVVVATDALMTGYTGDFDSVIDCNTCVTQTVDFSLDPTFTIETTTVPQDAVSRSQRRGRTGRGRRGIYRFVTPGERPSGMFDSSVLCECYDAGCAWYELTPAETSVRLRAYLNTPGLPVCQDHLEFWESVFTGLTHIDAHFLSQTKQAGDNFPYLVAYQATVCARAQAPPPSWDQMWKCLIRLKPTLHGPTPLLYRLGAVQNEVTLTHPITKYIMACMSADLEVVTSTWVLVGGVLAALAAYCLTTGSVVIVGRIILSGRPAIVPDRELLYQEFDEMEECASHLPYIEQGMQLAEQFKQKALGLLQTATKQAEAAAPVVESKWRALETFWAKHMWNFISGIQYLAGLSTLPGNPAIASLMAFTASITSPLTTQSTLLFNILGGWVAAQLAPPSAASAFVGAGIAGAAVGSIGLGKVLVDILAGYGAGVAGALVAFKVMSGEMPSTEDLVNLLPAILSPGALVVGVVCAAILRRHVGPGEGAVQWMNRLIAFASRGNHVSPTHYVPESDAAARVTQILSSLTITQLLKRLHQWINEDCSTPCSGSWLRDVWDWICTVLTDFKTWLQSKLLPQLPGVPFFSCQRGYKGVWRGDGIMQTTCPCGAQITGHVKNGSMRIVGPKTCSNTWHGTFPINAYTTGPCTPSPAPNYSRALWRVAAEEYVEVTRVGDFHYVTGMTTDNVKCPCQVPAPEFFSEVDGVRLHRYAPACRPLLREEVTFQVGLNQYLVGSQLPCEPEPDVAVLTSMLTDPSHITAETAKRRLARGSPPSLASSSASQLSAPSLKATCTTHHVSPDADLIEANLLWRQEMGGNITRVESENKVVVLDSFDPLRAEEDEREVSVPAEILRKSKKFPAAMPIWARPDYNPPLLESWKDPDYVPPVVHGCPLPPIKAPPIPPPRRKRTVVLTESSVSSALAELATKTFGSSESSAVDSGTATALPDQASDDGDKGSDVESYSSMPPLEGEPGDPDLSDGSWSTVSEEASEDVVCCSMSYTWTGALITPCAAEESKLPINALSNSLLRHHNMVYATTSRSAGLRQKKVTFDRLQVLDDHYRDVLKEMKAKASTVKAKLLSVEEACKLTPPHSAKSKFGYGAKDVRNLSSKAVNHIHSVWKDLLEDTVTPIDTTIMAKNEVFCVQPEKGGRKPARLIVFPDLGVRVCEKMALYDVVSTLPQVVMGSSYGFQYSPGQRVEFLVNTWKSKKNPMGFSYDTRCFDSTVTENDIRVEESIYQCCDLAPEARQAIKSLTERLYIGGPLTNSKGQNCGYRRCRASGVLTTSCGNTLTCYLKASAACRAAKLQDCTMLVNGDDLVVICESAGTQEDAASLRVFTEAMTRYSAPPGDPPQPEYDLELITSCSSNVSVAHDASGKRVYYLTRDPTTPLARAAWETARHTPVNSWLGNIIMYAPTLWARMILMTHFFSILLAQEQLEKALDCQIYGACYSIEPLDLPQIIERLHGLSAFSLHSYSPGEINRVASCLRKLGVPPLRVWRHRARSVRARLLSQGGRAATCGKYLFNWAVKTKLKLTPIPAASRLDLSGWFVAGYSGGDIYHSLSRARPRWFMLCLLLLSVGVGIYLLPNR

The assay has as its target HCV RdRp (NS5B) (UniProt P26663). Type of assay: biochemical, hepatitis C virus.
`O=C(CC1CNCCN1C(=O)NCc1ccc(Cl)c(Cl)c1)Nc1ccc(C2CCCCC2)cc1` (stereo not shown) [Compound 160, 2-[(4-CYCLOHEXYL-PHENYLCARBAMOYL)-METHYL]-PIPERAZINE-1-CARBOXYLIC ACID 3,4-DICHLORO-BENZYLAMIDE] returned an IC50 of 10 to 50 µM. With `Cc1ccc(NC(=O)C(CN)NC(=O)OCC2c3ccccc3-c3ccccc32)cc1` [Compound 401, (R)-(2-AMINO-1-P-TOLYLCARBAMOYL-ETHYL)-CARBAMIC ACID 9H-FLUOREN-9-YLMETHYL ESTER], the IC50 is greater than 50 µM.

Take `O=C(CC1CNCCN1C(=O)NCc1ccc(Cl)cc1)Nc1ccc(C2CCCCC2)cc1` (stereo not shown) [Compound 159, 2-[(4-CYCLOHEXYL-PHENYLCARBAMOYL)-METHYL]-PIPERAZINE-1-CARBOXYLIC ACID 4-CHLORO-BENZYLAMIDE]: the IC50 is 10 to 50 µM. As to `Cc1ccc(NC(=O)[C@H](CCCCN)NC(=O)Nc2ccc(OCc3ccccc3)cc2)cc1C` [Compound 254, (S)-6-AMINO-2-[3-(4-BENZYLOXY-PHENYL)-UREIDO]-HEXANOIC ACID (3,4-DIMETHYL-PHENYL)-AMIDE], the IC50 was 10 to 50 µM. Compound `Cc1ccc(NC(=O)C(NC(=O)OCC2c3ccccc3-c3ccccc32)C(C)O)cc1` [Compound 376, (2+/−,3S)-(2-HYDROXY-1-P-TOLYLCARBAMOYL-PROPYL)-CARBAMIC ACID 9H-FLUOREN-9-YLMETHYL ESTER] displayed an IC50 greater than 50 µM. Take `Cc1ccc(NC(=O)C(CCCCN)NC(=O)NC(C)c2cccc3ccccc23)cc1` [Compound 96, (R,S)-6-AMINO-2-[3-(1-NAPHTHALEN-1-YL-ETHYL)-UREIDO]-HEXANOIC ACID P-TOLYLAMIDE]: the IC50 was greater than 50 µM.

In turn, `Cc1ccc(NC(=O)[C@H](CCCCN)NC(=O)COc2ccc(I)cc2)cc1` [Compound 327, (S)-6-AMINO-2-[2-(4-IODO-PHENOXY)-ACETYLAMINO]-HEXANOIC ACID P-TOLYLAMIDE] yielded an IC50 greater than 50 µM.

As for `Cc1ccc(NC(=O)C2CCCCN2C(=O)OCC2c3ccccc3-c3ccccc32)cc1` [Compound 122, (S)-2-P-TOLYLCARBAMOYL-PIPERIDINE-1-CARBOXYLIC ACID 9H-FLUOREN-9-YLMETHYL ESTER], the IC50 is greater than 50 µM. For `Cc1ccc(NC(=O)[C@H](CCCCN)NC(=O)Nc2ccc(OCc3ccc([N+](=O)[O-])cc3)cc2)cc1` [Compound 196, (S)-6-AMINO-2-{3-[4-(4-NITRO-BENZYLOXY)-PHENYL]-UREIDO}-HEXANOIC ACID P-TOLYLAMIDE], the IC50 is 10 to 50 µM. `NCCCC[C@H](NC(=O)OCC1c2ccccc2-c2ccccc21)C(=O)Nc1ccc(OCc2ccccc2)c(Cl)c1` [Compound 210, (S)-[5-AMINO-1-(4-BENZYLOXY-3-CHLORO-PHENYLCARBAMOYL)-PENTYL]-CARBAMIC ACID 9H-FLUOREN-9-YLMETHYL ESTER] yielded an IC50 of less than 10 µM. Turning to `COc1ccc(-c2ccccc2)cc1NC(=O)NC(CCCCN)C(=O)Nc1ccc(C)cc1` [Compound 93, (S)-6-AMINO-2-[3-(4-METHOXY-BIPHENYL-3-YL)-UREIDO]-HEXANOIC ACID P-TOLYLAMIDE], the IC50 is greater than 50 µM. In turn, `Cc1ccc(NC(=O)C(CCCCCN)NC(=O)OCC2c3ccccc3-c3ccccc32)cc1` [Compound 104, (S)-(6-AMINO-1-P-TOLYLCARBAMOYL-HEXYL)-CARBAMIC ACID 9H-FLUOREN-9-YLMETHYL ESTER] showed an IC50 of less than 10 µM. In the case of `Cc1ccc(NC(=O)C(CCCCN)NC(=O)Nc2ccc(-c3ccccc3)cc2)cc1` [Compound 40, (S)-6-AMINO-2-(3-BIPHENYL-4-YL-UREIDO)-HEXANOIC ACID P-TOLYLAMIDE], the 50% inhibitory concentration (IC50) is 10 to 50 µM. In turn, `Cc1ccc(NC(=O)[C@H](CCCCN)NC(=O)NC2c3ccccc3-c3ccccc32)cc1` [Compound 126, (S)-6-AMINO-2-[3-(9H-FLUOREN-9-YL)-UREIDO]-HEXANOIC ACID P-TOLYLAMIDE] returned an IC50 of less than 10 µM. `Cc1ccc(NC(=O)CC2CN(C(=O)C(C)N)CCN2C(=O)OCC2c3ccccc3-c3ccccc32)cc1` [Compound 184, 4-((S)-2-AMINO-PROPIONYL)-2-(P-TOLYLCARBAMOYL-METHYL)-PIPERAZINE-1-CARBOXYLIC ACID 9H-FLUOREN-9-YLMETHYL ESTER] returned an IC50 greater than 50 µM.

Turning to `Cc1ccc(NC(=O)C(Cc2cccnc2)NC(=O)OCC2c3ccccc3-c3ccccc32)cc1` [Compound 385, (S)-(2-PYRIDIN-3-YL-1-P-TOLYLCARBAMOYL-ETHYL)-CARBAMIC ACID 9H-FLUOREN-9-YLMETHYL ESTER], the IC50 was greater than 50 µM. Under `NCCCC[C@H](NC(=O)Nc1ccc(OCc2ccccc2)cc1)C(=O)NCc1ccco1` [Compound 302, (S)-6-AMINO-2-[3-(4-BENZYLOXY-PHENYL)-UREIDO]-HEXANOIC ACID (FURAN-2-YLMETHYL)-AMIDE] stands greater than 50 µM. Under `NCCCC[C@H](NC(=O)Nc1ccc(OCc2ccccc2)cc1)C(=O)NCC1CCCCC1` [Compound 265, (s)-6-AMINO-2-[3-(4-BENZYLOXY-PHENYL)-UREIDO]-HEXANOIC ACID CYCLOHEXYLMETHYL-AMIDE] stands 10 to 50 µM; under `CCCCOc1ccc(S(=O)(=O)N[C@@H](CCCCN)C(=O)Nc2ccc(C)cc2)cc1` [Compound 390, (S)-6-AMINO-2-(4-BUTOXY-BENZENESULFONYLAMINO)-HEXANOIC ACID P-TOLYLAMIDE], greater than 50 µM. Take `NCCCCCCNC(=O)C(Cc1ccccc1)NC(=O)Nc1ccc(OCc2ccccc2)cc1` [Compound 263, (S)—NR-(6-AMINO-HEXYL)-2-13-(4-BENZYLOXY-PHENYL)-UREIDO]-3-PHENYL-PROPIONAMIDE]: the IC50 lay in the range of 10 to 50 µM. For `Cc1ccc(NC(=O)C(CCCCN)NC(=O)C(N)Cc2cccc3ccccc23)cc1` [Compound 61, (S,R)-6-AMINO-2-(2-AMINO-3-NAPHTHALEN-1-YL-PROPIONYLAMINO)-HEXANOIC ACID P-TOLYLAMIDE], the IC50 is greater than 50 µM. Compound `COC(=O)c1cccc(COc2ccc(NC(=O)NC(CCCCN)C(=O)Nc3ccc(C)cc3)cc2)c1` [Compound 276, (S)-3-{4-[3-(5-AMINO-1-P-TOLYLCARBAMOYL-PENTYL)-UREIDO]-PHENOXYMETHYL}-BENZOIC ACID METHYL ESTER] showed an IC50 of 10 to 50 µM. In the case of `Cc1ccc(NC(=O)C(CCCCN)NC(=O)Nc2ccc3ccccc3c2)cc1` [Compound 72, (S)-6-AMINO-2-(3-NAPHTHALEN-2-YL-UREIDO)-HEXANOIC ACID P-TOLYLAMIDE], the IC50 was in the range of 10 to 50 µM. Then `Cc1ccc(NC(=O)[C@@H](CCCCN)NC(=O)NCc2ccc(Cl)cc2)cc1` [Compound 169, (R)-6-AMINO-2-[3-(4-CHLORO-BENZYL)-UREIDO]-HEXANOIC ACID P-TOLYLAMIDE], with greater than 50 µM. `NCCCC[C@@H](NC(=O)NCc1ccc(Cl)c(Cl)c1)C(=O)Nc1ccc(C2CCCCC2)cc1` [Compound 165, (R)-6-AMINO-2-[3-(3,4-DICHLORO-BENZYL)-UREIDO]-HEXANOIC ACID (4-CYCLOHEXYL-PHENYL)-AMIDE] registered an IC50 of 10 to 50 µM. Under `Cc1ccc(NC(=O)C(CNC(=O)CNC(=O)CN)NC(=O)OCC2c3ccccc3-c3ccccc32)cc1` [Compound 222, (S)-{2-[2-(2-AMINO-ACETYLAMINO)-ACETYLAMINO]-1-P-TOLYLCARBAMOYL-ETHYL}-CARBAMIC ACID 9H-FLUOREN-9-YLMETHYL ESTER] stands 10 to 50 µM. Under `Cc1ccc(NC(=O)C(CCCCN)NC(=O)CN(C)Cc2ccccc2)cc1` [Compound 353, (S)-6-AMINO-2-[2-(BENZYL-METHYL-AMINO)-ACETYLAMINO]-HEXANOIC ACID P-TOLYLAMIDE] stands greater than 50 µM. Then `Cc1ccc(NC(=O)[C@H](CCCCN)NC(=O)Nc2ccc(NCc3ccc(F)cc3)cc2)cc1` [Compound 225, (S)-6-AMINO-2-{3-[4-(4-FLUORO-BENZYLAMINO)-PHENYL]-UREIDO}-HEXANOIC ACID P-TOLYLAMIDE], with greater than 50 µM; and `Cc1ccc(NC(=O)[C@H](CCCCN)NC(=O)CNCc2ccc(Cl)cc2)cc1` [Compound 349, (S)-6-AMINO-2-[2-(4-CHLORO-BENZYLAMINO)-ACETYLAMINO]-HEXANOIC ACID P-TOLYLAMIDE], with greater than 50 µM. Compound `NCCCC[C@H](NC(=O)OCC1c2ccccc2-c2ccccc21)C(=O)Nc1ccc2[nH]ncc2c1` [Compound 82, (S)-[5-AMINO-1-(1H-INDAZOL-5-YLCARBAMOYL)-PENTYL]-CARBAMIC ACID 9H-FLUOREN-9-YLMETHYL ESTER] gave an IC50 greater than 50 µM. Then `Cc1ccc(NC(=O)C(CCCCN)NC(=O)Cc2ccc(-c3ccccc3)cc2)cc1` [Compound 50, (S)-6-AMINO-2-(2-BIPHENYL-4-YL-ACETYLAMINO)-HEXANOIC ACID P-TOLYLAMIDE], with greater than 50 µM; and `Cc1ccc(NC(=O)[C@H](CCCCN)NC(=O)Nc2ccc(OCc3cc(F)cc(F)c3)cc2)cc1` [Compound 256, (S)-6-AMINO-2-{3-[4-(3,5-DIFLUORO-BENZYLOXY)-PHENYL]-UREIDO}-HEXANOIC ACID P-TOLYLAMIDE], with greater than 50 µM; and `Cc1ccc(NC(=O)C(CCCCN)NC(=O)CNc2ccc(C(F)(F)F)cc2)cc1` [Compound 365, (S)-6-AMINO-2-[2-(4-TRIFLUOROMETHYL-PHENYLAMINO)-ACETYLAMINO]-HEXANOIC ACID P-TOLYLAMIDE], with greater than 50 µM. Then `Cc1ccc(NC(=O)[C@H](CCCCN)NC(=O)CNC2Cc3ccccc3C2)cc1` [Compound 336, (S)-6-AMINO-2-[2-(INDAN-2-YLAMINO)-ACETYLAMINO]-HEXANOIC ACID P-TOLYLAMIDE], with greater than 50 µM; and `NCCC[C@H](NC(=O)OCC1c2ccccc2-c2ccccc21)C(=O)Nc1ccc(CN(C(=O)c2ccco2)C2CCCCC2)cc1` [Compound 15, (S)-[4-AMINO-1-(4-{[CYCLOHEXYL-(FURAN-2-CARBONYL)-AMINO]-METHYL}-PHENYLCARBAMOYL)-BUTYL]-CARBAMIC ACID 9H-FLUOREN-9-YLMETHYL ESTER], with 10 to 50 µM; and `Cc1ccc(NC(=O)C(CCC(=O)O)NC(=O)OCC2c3ccccc3-c3ccccc32)cc1` [Compound 372, (S)-4-(9H-FLUOREN-9-YLMETHOXYCARBONYLAMINO)-4-P-TOLYLCARBAMOYL-BUTYRIC ACID], with greater than 50 µM. In turn, `CNCC(=O)NCCCC(NC(=O)OCC1c2ccccc2-c2ccccc21)C(=O)Nc1ccc(C)cc1` [Compound 223, (S)-[4-(2-METHYLAMINO-ACETYLAMINO)-1-P-TOLYLCARBAMOYL-BUTYL]-CARBAMIC ACID 9H-FLUOREN-9-YLMETHYL ESTER] returned an IC50 of 10 to 50 µM.
